In patent US9650395B2, “Antibacterial compounds and methods for use” (PTC Therapeutics, Inc., priority 2011, dated 2017) one finds MIC data, which are given here for 26 compounds.

Assay [1] deals with quinolone resistant E. coli LZ3111. The experiment in a line: Antibacterial activity, MIC, quinolone resistant E. coli LZ3111. The settings on record: Escherichia coli, read-out: MIC, LZ3111. It is filed as cell-based, Escherichia coli. The text has this: The antibacterial activity from a microbroth dilution method may be presented as the minimum inhibitory concentration (MIC in […]). The MIC value is the lowest concentration of a drug which prevents macroscopically visible bacterial growth under test conditions.
Mutations in these regions are known to confer a high level resistance to the quinolone class of antibiotics.

Assay [2] has as its system Gram-positive Staphylococcus aureus (S. aureus) 29213. Nature of the assay: Antibacterial activity, microbroth dilution MIC, S. aureus 29213. It is filed as cell-based. The settings on record: Staphylococcus aureus; S. aureus 29213, microbroth dilution; read-out: MIC, 29213. On the technique in general: Broth dilution looks for growth in wells or tubes with falling amounts of substance.

In assay [3] the test system is control Gram-negative E. coli 25922 strain. Nature of the assay: Antibacterial activity, microbroth dilution MIC, E. coli 25922. It counts as cell-based, Escherichia coli. The settings on record: Escherichia coli; E. coli 25922, microbroth dilution; read-out: MIC, 25922.
In assay [4] the test system is super sensitive Gram-negative Escherichia coli (E. coli) BAS849. The experiment in a line: Antibacterial activity, microbroth dilution MIC, E. coli BAS849. As to conditions: Escherichia coli, read-out: MIC, BAS849. It counts as cell-based.
The mark [5] stands for this setting: E. coli BAS849, microbroth dilution.

Values after ≈ are worked out from the molar mass of the structure shown. Like-named read-outs stand apart in the source and are kept apart here.

Take `CCc1cc(C(=O)O)c(=O)[nH]c1-c1ccc(N2CC(NC(=O)N(C)CC(=O)O)C2)cc1` [Cpd 167, 6-[4-(3-{[(carboxymethyl)(methyl)carbamoyl]amino}azetidin-1-yl)phenyl]-5-ethyl-2-oxo-1,2-dihydropyridine-3-carboxylic acid]: the MIC (usually the least concentration at which growth counts as inhibited) in assay [1] fell in the range of 12.5 to 150 µg/mL (≈ 29.2 to 350 µM); in assay [2], 12.5 to 150 µg/mL (≈ 29.2 to 350 µM); in assay [3], 12.5 to 150 µg/mL (≈ 29.2 to 350 µM); in assay [4] (setting [5]) it was 1 to 3.5 µg/mL (≈ 2.33 to 8.17 µM).

`CCc1cc(C(=O)O)c(=O)[nH]c1-c1ccc(N2CCC(CNCc3cccc(F)c3)C2)cc1` (centres unmarked) [Cpd 238, 5-ethyl-6-[4-(3-{[(3-fluorobenzyl)amino]methyl}pyrrolidin-1-yl)phenyl]-2-oxo-1,2-dihydropyridine-3-carboxylic acid]: the MIC in assay [1] was 12.5 to 150 µg/mL (≈ 27.8 to 334 µM); in assay [2] it was 12.5 to 150 µg/mL (≈ 27.8 to 334 µM); in assay [3], 1 to 3.5 µg/mL (≈ 2.22 to 7.79 µM); in assay [4] (setting [5]), less than 1 µg/mL.

Consider `CCc1c(-c2ccc(N3CCCC3)cc2OC)[nH]c(=O)c(C(=O)O)c1O` [Cpd 45, 5-ethyl-4-hydroxy-6-[2-methoxy-4-(pyrrolidin-1-yl)phenyl]-2-oxo-1,2-dihydropyridine-3-carboxylic acid], for which the MIC in assay [1] was 12.5 to 150 µg/mL (≈ 34.9 to 419 µM); in assay [2] it was 3.5 to 12.5 µg/mL (≈ 9.77 to 34.9 µM); in assay [3], 12.5 to 150 µg/mL (≈ 34.9 to 419 µM); in assay [4] (setting [5]), 3.5 to 12.5 µg/mL (≈ 9.77 to 34.9 µM).

Consider `CCc1cc(C(=O)O)c(=O)[nH]c1-c1ccc(N2CCC(C3(N)CCC3)C2)cc1.O=C(O)C(F)(F)F` (centres unmarked) [Cpd 218, 6-{4-[3-(1-aminocyclobutyl)pyrrolidin-1-yl]phenyl}-5-ethyl-2-oxo-1,2-dihydropyridine-3-carboxylic acid trifluoroacetate], for which the MIC in assay [1] is 12.5 to 150 µg/mL; in assay [2], 12.5 to 150 µg/mL; in assay [3], 3.5 to 12.5 µg/mL; in assay [4], 1 to 3.5 µg/mL.

With `CCc1cc(C(=O)O)c(=O)[nH]c1-c1ccc(CN2CCCCC2)n1C` [Cpd 352, 5-ethyl-6-(1-methyl-5-(piperidin-1-ylmethyl)-1H-pyrrol-2-yl)-2-oxo-1,2-dihydropyridine-3-carboxylic acid], the MIC in assay [1], in assay [2], in assay [3] and in assay [4] (setting [5]) was 12.5 to 150 µg/mL (≈ 36.4 to 437 µM) throughout.

Consider `CCc1c(-c2ccc(N3CCC[C@@H](O)C3)cc2)[nH]c(=O)c(C(=O)O)c1O` [Cpd 125, 5-ethyl-4-hydroxy-6-{4-[(3R)-3-hydroxypiperidin-1-yl]phenyl}-2-oxo-1,2-dihydropyridine-3-carboxylic acid], for which the values for the MIC in assay [2], in assay [3] and in assay [4] (setting [5]) were 12.5 to 150 µg/mL (≈ 34.9 to 419 µM), 3.5 to 12.5 µg/mL (≈ 9.77 to 34.9 µM) and less than 1 µg/mL, respectively.

Regarding `CCc1cc(C(=O)O)c(=O)[nH]c1-c1ccc(N2CC(N)C2)cc1` [Cpd 170, 6-[4-(3-aminoazetidin-1-yl)phenyl]-5-ethyl-2-oxo-1,2-dihydropyridine-3-carboxylic acid], the MIC in assay [2], in assay [3] and in assay [4] (setting [5]) was 12.5 to 150 µg/mL (≈ 39.9 to 479 µM) throughout.

On to `CCc1c(-c2ccc(N3CCCCC3)s2)[nH]c(=O)c(C(=O)O)c1O` [Cpd 309, 5-ethyl-4-hydroxy-2-oxo-6-[5-(piperidin-1-yl)thiophen-2-yl]-1,2-dihydropyridine-3-carboxylic acid], for which the MIC was 3.5 to 12.5 µg/mL (≈ 10 to 35.9 µM) in assay [2], 12.5 to 150 µg/mL (≈ 35.9 to 431 µM) in assay [3] and less than 1 µg/mL in assay [4] (setting [5]).

On to `CCc1cc(C(=O)O)c(=O)[nH]c1-c1ccc(N2CC3CC2CN3C(=O)OC(C)(C)C)cc1` (centres unmarked) [Cpd 137, 6-{4-[5-(tert-butoxycarbonyl)-2,5-diazabicyclo[2.2.1]hept-2-yl]phenyl}-5-ethyl-2-oxo-1,2-dihydropyridine-3-carboxylic acid], for which the MIC was 12.5 to 150 µg/mL (≈ 28.4 to 341 µM) in assay [2], 12.5 to 150 µg/mL (≈ 28.4 to 341 µM) in assay [3] and less than 1 µg/mL in assay [4].

With `CCc1cc(C(=O)O)c(=O)[nH]c1-c1ccc(I)cc1` [Cpd 80, 5-ethyl-6-(4-iodophenyl)-2-oxo-1,2-dihydropyridine-3-carboxylic acid], the MIC in assay [2] fell in the range of 12.5 to 150 µg/mL (≈ 33.9 to 406 µM); in assay [3], 12.5 to 150 µg/mL (≈ 33.9 to 406 µM); in assay [4] (setting [5]), 3.5 to 12.5 µg/mL (≈ 9.48 to 33.9 µM).

With `CCc1cc(C(=O)O)c(=O)[nH]c1-c1ccc(N2CCCCC2)c(C)c1` [Cpd 72, 5-ethyl-6-[3-methyl-4-(piperidin-1-yl)phenyl]-2-oxo-1,2-dihydropyridine-3-carboxylic acid], the values for the minimum inhibitory concentration (MIC) in assay [2], in assay [3] and in assay [4] (setting [5]) were 12.5 to 150 µg/mL (≈ 36.7 to 441 µM), 12.5 to 150 µg/mL (≈ 36.7 to 441 µM) and 3.5 to 12.5 µg/mL (≈ 10.3 to 36.7 µM), respectively.

In the case of `CCc1c(-c2ccnn2C)[nH]c(=O)c(C(=O)O)c1O` [Cpd 345, 5-ethyl-4-hydroxy-6-(1-methyl-1H-pyrazol-5-yl)-2-oxo-1,2-dihydropyridine-3-carboxylic acid], the MIC in assay [2], in assay [3] and in assay [4] (setting [5]) was 12.5 to 150 µg/mL (≈ 47.5 to 570 µM) in each case.

Turning to `CCc1c(-c2ccc(Cl)cc2)[nH]c(=O)c(C(=O)O)c1O` [Cpd 77, 6-(4-chlorophenyl)-5-ethyl-4-hydroxy-2-oxo-1,2-dihydropyridine-3-carboxylic acid], the MIC fell in the range of 3.5 to 12.5 µg/mL (≈ 11.9 to 42.6 µM) in assay [2], 12.5 to 150 µg/mL (≈ 42.6 to 511 µM) in assay [3] and 1 to 3.5 µg/mL (≈ 3.4 to 11.9 µM) in assay [4] (setting [5]).

On to `CCc1cc(C(=O)O)c(=O)[nH]c1-c1ccc(OC)cc1N(C)C` [Cpd 40, 6-[2-(dimethylamino)-4-methoxyphenyl]-5-ethyl-2-oxo-1,2-dihydropyridine-3-carboxylic acid], for which the MIC in assay [2], in assay [3] and in assay [4] (setting [5]) was 12.5 to 150 µg/mL (≈ 39.5 to 474 µM) in each case.

In the case of `CCc1cc(C(=O)O)c(=O)[nH]c1-c1ccc(N2CCCCC2)cc1C` [Cpd 52, 5-ethyl-6-[2-methyl-4-(piperidin-1-yl)phenyl]-2-oxo-1,2-dihydropyridine-3-carboxylic acid], the MIC in assay [2], in assay [3] and in assay [4] (setting [5]) was 12.5 to 150 µg/mL (≈ 36.7 to 441 µM) in each case.

On to `CCc1cc(C(=O)O)c(=O)[nH]c1-c1ccc(N2CCC(N(CC)CC)C2)cc1.O=C(O)C(F)(F)F` (centres unmarked) [Cpd 172, 6-{4-[3-(diethylamino)pyrrolidin-1-yl]phenyl}-5-ethyl-2-oxo-1,2-dihydropyridine-3-carboxylic acid trifluoroacetate], for which the results for the MIC in assay [2], in assay [3] and in assay [4] were 12.5 to 150 µg/mL, 3.5 to 12.5 µg/mL and less than 1 µg/mL, respectively.

Take `CCc1c(-c2ccc(OC)cc2N2CCCC2)[nH]c(=O)c(C(=O)O)c1O` [Cpd 48, 5-ethyl-4-hydroxy-6-[4-methoxy-2-(pyrrolidin-1-yl)phenyl]-2-oxo-1,2-dihydropyridine-3-carboxylic acid]: the MIC in assay [2] lay in the range of 3.5 to 12.5 µg/mL (≈ 9.77 to 34.9 µM); in assay [3] it was 12.5 to 150 µg/mL (≈ 34.9 to 419 µM); in assay [4] (setting [5]) it was 3.5 to 12.5 µg/mL (≈ 9.77 to 34.9 µM).

Consider `CCc1c(-c2ccc(N3CCCCC3)c(C)c2)[nH]c(=O)c(C(=O)O)c1O` [Cpd 73, 5-ethyl-4-hydroxy-6-[3-methyl-4-(piperidin-1-yl)phenyl]-2-oxo-1,2-dihydropyridine-3-carboxylic acid], for which the MIC in assay [2] was 3.5 to 12.5 µg/mL (≈ 9.82 to 35.1 µM); in assay [3] it was 12.5 to 150 µg/mL (≈ 35.1 to 421 µM); in assay [4] (setting [5]) it was 3.5 to 12.5 µg/mL (≈ 9.82 to 35.1 µM).

Turning to `CCc1cc(C(=O)O)c(=O)[nH]c1-c1ccc(N2C[C@@H](O)[C@@H](O)C2)cc1` [Cpd 303, 6-{4-[(3R,4S)-3,4-dihydroxypyrrolidin-1-yl]phenyl}-5-ethyl-2-oxo-1,2-dihydropyridine-3-carboxylic acid], the MIC in assay [2] is 12.5 to 150 µg/mL (≈ 36.3 to 436 µM); in assay [3], 12.5 to 150 µg/mL (≈ 36.3 to 436 µM); in assay [4] (setting [5]), less than 1 µg/mL.

In the case of `CCc1cc(C(=O)O)c(=O)[nH]c1-c1ccc(N2CCCCC2)s1` [Cpd 308, 5-ethyl-2-oxo-6-[5-(piperidin-1-yl)thiophen-2-yl]-1,2-dihydropyridine-3-carboxylic acid], the MIC in assay [2] fell in the range of 12.5 to 150 µg/mL (≈ 37.6 to 451 µM); in assay [3], 12.5 to 150 µg/mL (≈ 37.6 to 451 µM); in assay [4] (setting [5]), 1 to 3.5 µg/mL (≈ 3.01 to 10.5 µM).

For `CCc1cc(C(=O)O)c(=O)[nH]c1-c1ccc(N2CCCCC2)cc1F` [Cpd 43, 5-ethyl-6-[2-fluoro-4-(piperidin-1-yl)phenyl]-2-oxo-1,2-dihydropyridine-3-carboxylic acid], the values for the MIC in assay [2], in assay [3] and in assay [4] (setting [5]) were 12.5 to 150 µg/mL (≈ 36.3 to 436 µM), 12.5 to 150 µg/mL (≈ 36.3 to 436 µM) and less than 1 µg/mL, respectively.

Consider `CCc1c(-c2ccc(N(C)C)c(C)c2)[nH]c(=O)c(C(=O)O)c1O` [Cpd 63, 6-[4-(dimethylamino)-3-methylphenyl]-5-ethyl-4-hydroxy-2-oxo-1,2-dihydropyridine-3-carboxylic acid], for which the MIC in assay [2] was 3.5 to 12.5 µg/mL (≈ 11.1 to 39.5 µM); in assay [3], 12.5 to 150 µg/mL (≈ 39.5 to 474 µM); in assay [4] (setting [5]), 1 to 3.5 µg/mL (≈ 3.16 to 11.1 µM).

As for `CCc1cc(C(=O)O)c(=O)[nH]c1-c1ccc(C#N)cc1` [Cpd 15, 6-(4-cyanophenyl)-5-ethyl-2-oxo-1,2-dihydropyridine-3-carboxylic acid], the MIC in assay [2], in assay [3] and in assay [4] (setting [5]) was 12.5 to 150 µg/mL (≈ 46.6 to 559 µM) each time.

Take `CCc1cc(C(=O)O)c(=O)[nH]c1-c1ccc(N2CCC[C@@H](O)C2)cc1` [Cpd 122, 5-ethyl-6-{4-[(3R)-3-hydroxypiperidin-1-yl]phenyl}-2-oxo-1,2-dihydropyridine-3-carboxylic acid]: the results for the MIC in assay [2], in assay [3] and in assay [4] (setting [5]) were 12.5 to 150 µg/mL (≈ 36.5 to 438 µM), 3.5 to 12.5 µg/mL (≈ 10.2 to 36.5 µM) and less than 1 µg/mL, respectively.

With `CCc1cc(C(=O)O)c(=O)[nH]c1-c1ccc(N2C(=O)C3C=CC2C3)cc1` (centres unmarked) [Cpd 119, 5-ethyl-2-oxo-6-[4-(3-oxo-2-azabicyclo[2.2.1]hept-5-en-2-yl)phenyl]-1,2-dihydropyridine-3-carboxylic acid], the results for the minimal inhibitory concentration (MIC) in assay [2], in assay [3] and in assay [4] (setting [5]) were 12.5 to 150 µg/mL (≈ 35.7 to 428 µM), 12.5 to 150 µg/mL (≈ 35.7 to 428 µM) and 1 to 3.5 µg/mL (≈ 2.85 to 9.99 µM), respectively.

Turning to `CCc1cc(C(=O)O)c(=O)[nH]c1-c1ccccc1N(C)C` [Cpd 54, 6-[2-(dimethylamino)phenyl]-5-ethyl-2-oxo-1,2-dihydropyridine-3-carboxylic acid], the MIC in assay [2], in assay [3] and in assay [4] (setting [5]) was 12.5 to 150 µg/mL (≈ 43.7 to 524 µM) in each case.
